Results reported in ChEMBL document CHEMBL4627344, “Synthesis, biological evaluation and virtual screening of some acridone derivatives as potential anticancer agents” (2020).

Experiments:
Format in all cases: functional
[1] = system: CCRF-CEM; assay: Antiproliferative activity against human CCRF-CEM cells assessed as inhibition of cell growth at 10 uM measured after 48 hrs by SRB assay relative to control; conditions: read-out: GI
[2] = system: K562; assay: Antiproliferative activity against human K562 cells assessed as inhibition of cell growth at 10 uM measured after 48 hrs by SRB assay relative to control; conditions: K562, 48 h, read-out: GI
[3] = system: MOLT-4; assay: Antiproliferative activity against human MOLT4 cells assessed as inhibition of cell growth at 10 uM measured after 48 hrs by SRB assay relative to control; conditions: MOLT-4, 48 h, read-out: GI
[4] = system: SR; assay: Antiproliferative activity against human SR cells assessed as inhibition of cell growth at 10 uM measured after 48 hrs by SRB assay relative to control; conditions: read-out: GI
[5] = system: A549; assay: Antiproliferative activity against human A549 cells assessed as inhibition of cell growth at 10 uM measured after 48 hrs by SRB assay relative to control; conditions: A549, 48 h, read-out: GI
[6] = system: NCI-H460; assay: Antiproliferative activity against human NCI-H460 cells assessed as inhibition of cell growth at 10 uM measured after 48 hrs by SRB assay relative to control; conditions: NCI-H460, 48 h, read-out: GI
[7] = system: SW-620; assay: Antiproliferative activity against human SW620 cells assessed as inhibition of cell growth at 10 uM measured after 48 hrs by SRB assay relative to control; conditions: SW-620, 48 h, read-out: GI
[8] = system: M14; assay: Antiproliferative activity against human M14 cells assessed as inhibition of cell growth at 10 uM measured after 48 hrs by SRB assay relative to control; conditions: M14, 48 h, read-out: GI
[9] = system: MDA-MB-435; assay: Antiproliferative activity against human MDA-MB-435 cells assessed as inhibition of cell growth at 10 uM measured after 48 hrs by SRB assay relative to control; conditions: MDA-MB-435, 48 h, read-out: GI
[10] = system: SK-MEL-5; assay: Antiproliferative activity against human SK-MEL-5 cells assessed as inhibition of cell growth at 10 uM measured after 48 hrs by SRB assay relative to control; conditions: SK-MEL-5, 48 h, read-out: GI
[11] = system: UACC-62; assay: Antiproliferative activity against human UACC62 cells assessed as inhibition of cell growth at 10 uM measured after 48 hrs by SRB assay relative to control; conditions: UACC-62, 48 h, read-out: GI
[12] = system: NCI/ADR-RES; assay: Antiproliferative activity against human NCI-ADR-RES cells assessed as inhibition of cell growth at 10 uM measured after 48 hrs by SRB assay relative to control; conditions: read-out: GI
[13] = system: ACHN; assay: Antiproliferative activity against human ACHN cells assessed as inhibition of cell growth at 10 uM measured after 48 hrs by SRB assay relative to control; conditions: read-out: GI
[14] = system: PC-3; assay: Antiproliferative activity against human PC3 cells assessed as inhibition of cell growth at 10 uM measured after 48 hrs by SRB assay relative to control; conditions: PC-3, 48 h, read-out: GI
[15] = system: CCRF-CEM; assay: Antiproliferative activity against human CCRF-CEM cells assessed as inhibition of cell growth measured after 48 hrs by SRB assay
[16] = system: MOLT-4; assay: Antiproliferative activity against human MOLT4 cells assessed as inhibition of cell growth measured after 48 hrs by SRB assay; conditions: MOLT-4, 48 h
[17] = system: SR; assay: Antiproliferative activity against human SR cells assessed as inhibition of cell growth measured after 48 hrs by SRB assay
[18] = system: A549; assay: Antiproliferative activity against human A549 cells assessed as inhibition of cell growth measured after 48 hrs by SRB assay; conditions: A549, 48 h
[19] = system: HOP-62; assay: Antiproliferative activity against human HOP62 cells assessed as inhibition of cell growth measured after 48 hrs by SRB assay; conditions: HOP-62, 48 h
[20] = system: HCT-116; assay: Antiproliferative activity against human HCT116 cells assessed as inhibition of cell growth measured after 48 hrs by SRB assay; conditions: HCT-116, 48 h
[21] = system: SNB-19; assay: Antiproliferative activity against human SNB19 cells assessed as inhibition of cell growth measured after 48 hrs by SRB assay; conditions: SNB-19, 48 h
[22] = system: MDA-MB-435; assay: Antiproliferative activity against human MDA-MB-435 cells assessed as inhibition of cell growth measured after 48 hrs by SRB assay; conditions: MDA-MB-435, 48 h
[23] = system: SK-MEL-2; assay: Antiproliferative activity against human SK-MEL-2 cells assessed as inhibition of cell growth measured after 48 hrs by SRB assay; conditions: SK-MEL-2, 48 h
[24] = system: SK-MEL-5; assay: Antiproliferative activity against human SK-MEL-5 cells assessed as inhibition of cell growth measured after 48 hrs by SRB assay; conditions: SK-MEL-5, 48 h
[25] = system: UACC-62; assay: Antiproliferative activity against human UACC62 cells assessed as inhibition of cell growth measured after 48 hrs by SRB assay; conditions: UACC-62, 48 h
[26] = system: SK-OV-3; assay: Antiproliferative activity against human SKOV3 cells assessed as inhibition of cell growth measured after 48 hrs by SRB assay; conditions: SK-OV-3, 48 h
[27] = system: A498; assay: Antiproliferative activity against human A498 cells assessed as inhibition of cell growth measured after 48 hrs by SRB assay; conditions: A498, 48 h
[28] = system: CAKI-1; assay: Antiproliferative activity against human CAKI-1 cells assessed as inhibition of cell growth measured after 48 hrs by SRB assay; conditions: CAKI-1, 48 h
[29] = system: RXF 393; assay: Antiproliferative activity against human RXF393 cells assessed as inhibition of cell growth measured after 48 hrs by SRB assay; conditions: RXF 393, 48 h
[30] = system: SN12C; assay: Antiproliferative activity against human SN12C cells assessed as inhibition of cell growth measured after 48 hrs by SRB assay
[31] = system: DU-145; assay: Antiproliferative activity against human DU145 cells assessed as inhibition of cell growth measured after 48 hrs by SRB assay; conditions: DU-145, 48 h
[32] = system: MCF7; assay: Antiproliferative activity against human MCF7 cells assessed as inhibition of cell growth measured after 48 hrs by SRB assay; conditions: MCF7, 48 h
[33] = system: Hs-578T; assay: Antiproliferative activity against human Hs 578T cells assessed as inhibition of cell growth measured after 48 hrs by SRB assay
[34] = system: BT-549; assay: Antiproliferative activity against human BT549 cells assessed as inhibition of cell growth measured after 48 hrs by SRB assay; conditions: BT-549, 48 h
[35] = system: T47D; assay: Antiproliferative activity against human T47D cells assessed as inhibition of cell growth measured after 48 hrs by SRB assay
[36] = system: HCC 2998; assay: Antiproliferative activity against human HCC2998 cells assessed as inhibition of cell growth measured after 48 hrs by SRB assay; conditions: HCC 2998, 48 h
[37] = system: OVCAR-5; assay: Antiproliferative activity against human OVCAR5 cells assessed as inhibition of cell growth measured after 48 hrs by SRB assay; conditions: OVCAR-5, 48 h
[38] = system: MDA-MB-468; assay: Antiproliferative activity against human MDA-MB-468 cells assessed as inhibition of cell growth measured after 48 hrs by SRB assay; conditions: MDA-MB-468, 48 h

Row | SMILES | inhibition of growth at 10 µM [2] [%] | inhibition of growth at 10 µM [3] [%] | inhibition of growth at 10 µM [4] [%] | inhibition of growth at 10 µM [6] [%] | inhibition of growth at 10 µM [7] [%] | inhibition of growth at 10 µM [8] [%] | inhibition of growth at 10 µM [9] [%] | inhibition of growth at 10 µM [10] [%] | inhibition of growth at 10 µM [11] [%] | inhibition of growth at 10 µM [12] [%] | inhibition of growth at 10 µM [13] [%] | inhibition of growth at 10 µM [14] [%] | GI50 [15] [nM] | GI50 [16] [nM] | GI50 [17] [nM] | GI50 [18] [nM] | GI50 [19] [nM] | GI50 [20] [nM] | GI50 [21] [nM] | GI50 [22] [nM] | further results
1 | COc1ccc2nc3c(cc2c1)C(=O)CC(c1ccccc1)C3 (centres undefined) | 86.8 | 82.2 | 82.3 | 91.2 | 82.2 | 90.7 | 168 | 69.8 | 63.1 | 86.8 | 56.1 | 71.2 | 322 | 431 | 322 | 2070 | 1960 | 432 | 2620 | 137 | inhibition of growth at 10 µM [1]: 89.3%; inhibition of growth at 10 µM [5]: 65.2%; GI50 [23]: 777 nM; GI50 [24]: 540 nM; GI50 [25]: 728 nM; GI50 [26]: 2090 nM; GI50 [27]: 346 nM; GI50 [28]: 525 nM; GI50 [29]: 440 nM; GI50 [30]: 639 nM; GI50 [31]: 593 nM; GI50 [32]: 3490 nM; GI50 [33]: 1000 nM; GI50 [34]: 2210 nM; GI50 [35]: 3.65 µM
2 | O=C1CC(c2ccccc2)Cc2nc3ccc(Cl)cc3cc21 (centres undefined) | 79.3 | 93.2 | 87 | 96.7 | 77 | 91 | 139 | 114 | 70.7 | 92 | 69.2 | 72.3 | 40 | 67.5 | 53.2 | 420 | 428 | 46.8 | 425 | 26.6 | inhibition of growth at 10 µM [1]: 89.6%; inhibition of growth at 10 µM [5]: 76.7%; GI50 [36]: 2890 nM; GI50 [23]: 320 nM; GI50 [24]: 203 nM; GI50 [25]: 333 nM; GI50 [37]: 1020 nM; GI50 [26]: 845 nM; GI50 [27]: 87 nM; GI50 [28]: 151 nM; GI50 [29]: 195 nM; GI50 [30]: 533 nM; GI50 [31]: 334 nM; GI50 [32]: 2550 nM; GI50 [33]: 306 nM; GI50 [34]: 500 nM; GI50 [38]: 2470 nM
3 | COc1ccc2nc3c(cc2c1)C(=O)CC(C(F)(F)F)C3 (centres undefined) | 83.2 | 84.7 | 83.6 | 89.5 | 58.5 | 91.3 | 148 | 68.6 | 60.2 | 81.1 | 50.8 | 67 | 238 | 88.2 | 217 | 3030 | 3610 | 133 | 3610 | 143 | inhibition of growth at 10 µM [1]: 90.1%; inhibition of growth at 10 µM [5]: 60.7%; GI50 [23]: 802 nM; GI50 [24]: 411 nM; GI50 [25]: 697 nM; GI50 [27]: 355 nM; GI50 [28]: 690 nM; GI50 [29]: 562 nM; GI50 [30]: 823 nM; GI50 [31]: 849 nM; GI50 [32]: 3420 nM; GI50 [33]: 3350 nM; GI50 [35]: 3.29 µM; GI50 [38]: 1870 nM
4 | O=C1CC(c2ccccc2)Cc2nc3c(Br)cc(Br)cc3cc21 (centres undefined) | 86.8 | 79.2 | 80.5 | 97.7 | 77.6 | 94.7 | 124 | 118 | 61.7 | 113 | 70.3 | 77.4 | 88.9 | 104 | 91.3 | 79.2 | 180 | 47.8 | 406 | 211 | GI50 [36]: 282 nM; GI50 [23]: 49.2 nM; GI50 [24]: 298 nM; GI50 [25]: 338 nM; GI50 [37]: 461 nM; GI50 [26]: 102 nM; GI50 [27]: 140 nM; GI50 [28]: 145 nM; GI50 [29]: 91.6 nM; GI50 [30]: 661 nM; GI50 [31]: 82.6 nM; GI50 [32]: 382 nM; GI50 [33]: 191 nM; GI50 [34]: 541 nM; GI50 [35]: 0.851 µM; GI50 [38]: 1280 nM
5 | O=C1CC(c2ccccc2)Cc2nc3ccc(Br)cc3cc21 (centres undefined) | 93.9 | 89.5 | 86.9 | 95.4 | 74.9 | 89.8 | 140 | 97.9 | 63.8 | 82.9 | 65.7 | 68 | 49.8 | 53.7 | 56.7 | 419 | 354 | 51.5 | 434 | 27.1 | inhibition of growth at 10 µM [1]: 91.5%; inhibition of growth at 10 µM [5]: 76.2%; GI50 [36]: 2580 nM; GI50 [23]: 238 nM; GI50 [24]: 288 nM; GI50 [25]: 444 nM; GI50 [37]: 825 nM; GI50 [26]: 611 nM; GI50 [27]: 74.5 nM; GI50 [28]: 207 nM; GI50 [29]: 208 nM; GI50 [30]: 526 nM; GI50 [31]: 274 nM; GI50 [32]: 2760 nM; GI50 [33]: 411 nM; GI50 [34]: 685 nM; GI50 [38]: 2840 nM
